The source of these data is article PMC9964651, “Discovery of Ureido-Based Apcin Analogues as Cdc20-specific Inhibitors against Cancer” (Pharmaceuticals, 2023).

For one assay, the system named is Hepg2. Put plainly: In vitro antiproliferative assay (CCK-8). The settings on record: Homo sapiens, HepG2, 48 h, read-out: IC50 ± SD Hepg2.
Assay [1] has as its target recombinant human Cdc20 protein (Homo sapiens, UniProt Q12834). Put plainly: Surface plasmon resonance (SPR) assay. Type of assay: binding. Particulars: one-to-one model. As for the experimental part: Surface plasmon resonance (SPR) analysis can measure the interaction process between various biomolecules, such as polypeptides, proteins, oligonucleotides, and oligosaccharides, as well as viruses, bacteria, cells, and small molecular compounds. First, we installed the COOH chip according to the standard operating procedure of the OpenSPRTM instrument and started running it at the maximum flow rate (150 μL/min). The detection buffer was PBS, and after reaching the signal baseline, 200 μL of isopropanol were loaded and the air was removed by running for 10 s. After reaching baseline, the sample loop was flushed with buffer and evacuated with air, and after the signal reached baseline, the buffer flow rate was adjusted to 20 μL/min. A total of 200 μL of EDC/NHS (1:1) solution (20 μL/min, 4 min), 200 μL EDC/NHS (1:1) solution (20 μL/min, 4 min), and 200 μL recombinant human Cdc20 protein buffer was loaded and run for 4 min (20 μL/min), and the sample loop was rinsed with buffer and drained with null air. A total of 200 μL of blocking solution was loaded (20 μL/min, 4 min), and the sample loop was flushed with buffer and evacuated with air. After the baseline was stable, the analyte was diluted with buffer and loaded at 20 μL/min. The binding time of the analyte and the ligand was 240 s, and the natural dissociation time was 480 s. The analysis software used for the experimental results was TraceDrawer (Ridgeview Instruments ab, Sweden), and the analysis method was the one-to-one analysis model.
Molecules were tested in a dilution series starting at 500 μM. The analyte was diluted with buffer and loaded at 20 μL/min. The binding time of the analyte and the ligand was 240 s, and the natural dissociation time was 480 s. The analysis software used for the experimental results was TraceDrawer (Ridgeview Instruments AB, Sweden), and the analysis method was the one-to-one analysis model.
On the technique in general: SPR reads the build-up and loss of mass on a sensor chip optically.

For a further assay, the system named is Hela. Put plainly: In vitro antiproliferative assay (CCK-8). Particulars: Homo sapiens, HeLa; CCK-8, 48 h, mean ± SD. Type of assay: cell-based, human. The text has this:
The experiment was repeated three times.

The subject of the next assay is Mcf-7. Put plainly: In vitro antiproliferative assay (CCK-8). Particulars: Homo sapiens, MCF7, 48 h, read-out: IC50 ± SD Mcf-7.
The subject of assay [2] is Hela cells. Put plainly: Cell-cycle assay (flow cytometry, propidium iodide). Type of assay: cell-based, human. Particulars: 24 h. The procedure:
Then, the preset drug concentration was added and incubated for 24 h. Cells were collected by centrifugation and were fixed overnight with pre-cooled ethanol (70%) and washed twice with buffer, propidium-iodide staining solution was added (0.5 mL/well), and they were incubated at 37 °C for 30 min in the dark for flow detection.
(In flow cytometry, cells or beads pass a laser one at a time.)

Assay [3] concerns Hela cells. Put plainly: Annexin V-FITC/PI double-staining cell-apoptosis assay. Type of assay: cell-based, human. The settings on record: 24 h, in words. As for the experimental part: Then, the preset drug concentration was added and incubated for 24 h. Cells were collected by centrifugation, resuspended in buffer, and then stained by adding Annexin V-FITC (5 μL) and PI Staining Solution (5 μL) and incubated at room temperature for 10 min. The samples were detected by flow cytometry within 1 h after staining. Flow cytometer (Beckman Coulter Cytofex) was used for subsequent detection, and the data were processed with FlowJo software.

Another assay deals with Mda-mb-231. Put plainly: In vitro antiproliferative assay (CCK-8). The settings on record: Homo sapiens, MDA-MB-231, 48 h, read-out: IC50 ± SD Mda-mb-231.
The next assay has as its system tubulin. Put plainly: Tubulin polymerization assay in vitro. The settings on record: reference compound, concentration not given. Type of assay: biochemical. The procedure: We used an HTS-Tubulin Polymerization Assay Kit (BK004P, Cytoskeleton, USA) to assess the inhibitory effect of compounds on tubulin polymerization. Tubulin solution was prepared, and the compound solution and paclitaxel solution were tested according to the instructions of the kit. General tubulin buffer, paclitaxel solution, and 10× test compound solution were added to a 96-well plate (10 μL/well) and incubated at 37 °C for two minutes. A total of 100 μL of tubulin solution was pipetted into the corresponding wells. The plate was immediately placed on a multi-function microplate reader at 37 °C, and the continuous kinetic values were recorded.
Figure 7 The effect of compound 20 and compound 27 on in vitro tubulin polymerization was tested. Polymerization of purified tubulin was performed in a cell-free assay. Tubulin protein was incubated at 37 °C in a reaction buffer exposed to vehicle control or test compounds at the indicated concentrations. Absorbance at 340 nm was monitored at 37 °C every 30 s for 1 h.

The test system of the next assay is four cancer-cell lines. Put plainly: In vitro antiproliferative assay (CCK-8), cell line not given. Particulars: Homo sapiens, read-out: IC50 (antiproliferative activity).

One may read the IC50 as the concentration that gives 50% inhibition. One may read the Kd as the constant that tells how readily two partners part at equilibrium.

recombinant human Cdc20 protein, sequence (Q12834 whole entry): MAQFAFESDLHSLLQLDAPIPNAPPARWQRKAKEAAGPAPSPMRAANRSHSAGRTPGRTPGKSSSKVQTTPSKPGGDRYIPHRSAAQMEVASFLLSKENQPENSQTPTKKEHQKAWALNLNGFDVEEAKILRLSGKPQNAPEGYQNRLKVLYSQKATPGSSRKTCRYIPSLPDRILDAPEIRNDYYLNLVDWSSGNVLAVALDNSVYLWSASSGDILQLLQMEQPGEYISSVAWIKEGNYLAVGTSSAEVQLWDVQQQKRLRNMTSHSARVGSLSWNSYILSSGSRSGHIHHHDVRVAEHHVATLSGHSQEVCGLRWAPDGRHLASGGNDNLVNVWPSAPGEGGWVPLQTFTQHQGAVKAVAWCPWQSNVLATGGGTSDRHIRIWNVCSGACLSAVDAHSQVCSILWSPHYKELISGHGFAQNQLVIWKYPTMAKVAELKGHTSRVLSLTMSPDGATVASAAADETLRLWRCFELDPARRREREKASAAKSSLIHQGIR
Procedure for Hepg2: (§1) Hela and MDA-MB-132 cells were grown in DMEM (Gibco) containing 10% FBS and 1% double antibody (penicillin 100 U/mL, streptomycin 100 μg/mL, Solarbio). […] All cell lines were purchased from the Xiangya Cell Bank, Central South University, Changsha, China, and incubated at 37 °C with 5% CO2 in a humidified atmosphere. […] Cytotoxicity assay was assessed using CCK-8 methods. The cells were seeded in a 96-well plate (2 × 10^3–3 × 10^3 cells/well), the 96-well plate was incubated at 37 °C with 5% CO2 in a humidified atmosphere, and the cells were grown in a monolayer; the original culture was discarded. A total of 100 μL of drug-containing medium with a specific concentration gradient was added and then cultivated for 48 h; 10 μL/well of CCK-8 solution was added, put in an incubator, and incubated for 1 h and read with a multi-function microplate reader at a wavelength of 450 nm. The inhibition rate was calculated, and the IC50 results were calculated by GraphPad Prism 7 software. The experiment was repeated three times.
Procedure for Mcf-7: as §1
Procedure for Mda-mb-231: as §1
Procedure for four cancer-cell lines: as §1

`Cc1ncc([N+](=O)[O-])n1CCOC(=O)N[C@@H](Nc1ncccn1)C(Cl)(Cl)Cl` (racemic) [Apcin]: the IC50 is greater than 100 µM with Hepg2, 182 ± 12.5 µM with Hela, greater than 100 µM with Mcf-7 and greater than 100 µM in the assay on Mda-mb-231. In assay [1] (dissociation-equilibrium constant), the Kd came out at 236 µM. Further, the “Kd (1/S)” value in [1] (dissociation-rate constant) is 2.33 × 10^−2 1/S. Further, the “P4 gate (cells in the G2/M phase)” value with Hela cells [2] (150μm) turned out to be 34.87%. In the assay on Hela cells [2] (in words), the “number of cells in the mitotic G2/M phase” value is given as “significant increase”. For the same compound, in the assay with Hela cells [3], the apoptotic rates entry is reported as “increased in a concentration-dependent way”.

On to `CC(=O)O[C@H]1C(=O)[C@@]2(C)[C@H]([C@H](OC(=O)c3ccccc3)[C@]3(O)C[C@H](OC(=O)[C@H](O)[C@@H](NC(=O)c4ccccc4)c4ccccc4)C(C)=C1C3(C)C)[C@]1(OC(C)=O)CO[C@@H]1C[C@@H]2O` [paclitaxel, reference compound], for which the “effect on microtubule polymerization” value in the assay with tubulin is given as “promote microtubule polymerization”.

With `O=C(NC(Nc1ncccn1)C(Cl)(Cl)Cl)NS(=O)(=O)c1ccccc1` (stereo not shown) [Compound 6, N-((2,2,2-trichloro-1-(pyrimidin-2-ylamino)ethyl)carbamoyl)benzenesulfonamide], the IC50 was greater than 100 µM in the assay with Hepg2; greater than 100 µM in the assay with Hela; greater than 100 µM in the assay on Mcf-7; greater than 100 µM in the assay on Mda-mb-231; greater than 80 µM with four cancer-cell lines.

Consider `CCNC(=O)NC(Nc1ncccn1)C(Cl)(Cl)Cl` (stereo not shown) [Compound 5, 1-ethyl-3-(2,2,2-trichloro-1-(pyrimidin-2-ylamino)ethyl)urea], for which the IC50 in the assay with Hepg2 is greater than 100 µM; with Hela, greater than 100 µM; in the assay on Mcf-7, greater than 100 µM; with Mda-mb-231, greater than 100 µM; in the assay on four cancer-cell lines, greater than 80 µM.

Turning to `O=C(NCCc1ccccc1)NC(Nc1nccc(C(F)(F)F)n1)C(Cl)(Cl)Cl` (stereo not shown) [Compound 7, 1-phenethyl-3-(2,2,2-trichloro-1-((4-(trifluoromethyl)pyrimidin-2-yl)aminno16)ethyl)urea], the IC50 in the assay on Hepg2 was 20.7 ± 3.6 µM; in the assay with Hela it was 34.2 ± 5.16 µM; with Mcf-7, 21.3 ± 4.52 µM; with Mda-mb-231, 34.7 ± 1.23 µM; in the assay with four cancer-cell lines, less than 40 µM.
